Results on two compounds are retold here after ChEMBL document CHEMBL5352475, “Design, synthesis, and biological evaluation of novel glutaminase 1 allosteric inhibitors with an alkane chain tail group” (Eur J Med Chem, 2023).

Each structure is given as a SMILES string.

Series [1] has as its system HCT-116. Briefly: Induction of apoptosis in human HCT-116 cells assessed as early apoptotic cells at 1 uM measured after 24 hrs by FITC annexin-V/PI staining based flow cytometric analysis (reference value: 3.73%). The format is functional.
Series [2] in a line: Toxicity in BALB/c nude mouse xenografted with human HCT-116 cells assessed as obvious tissue lesion in liver at 100 mg/kg, ip upto 20 days. The settings on record: in vivo, 480 h, time < 20 day. The format is organism-based.
Series [3] can be described thus: Toxicity in BALB/c nude mouse xenografted with human HCT-116 cells assessed as obvious tissue lesion in lung at 100 mg/kg, ip upto 20 days. The note with it: in vivo, 480 h, time < 20 day. The format is organism-based.
A short description of series [4]: Toxicity in BALB/c nude mouse xenografted with human HCT-116 cells assessed as change in cell structure in spleen at 100 mg/kg, ip upto 20 days. The note with it: in vivo, 480 h, time < 20 day. The class given is organism-based.
Series [5] is described as follows: Toxicity in BALB/c nude mouse xenografted with human HCT-116 cells assessed as obvious tissue lesion in heart at 100 mg/kg, ip upto 20 days. The format is organism-based. The settings on record: in vivo, 480 h, time < 20 day.
Series [6] concerns HCT-116. The series can be described thus: Induction of apoptosis in human HCT-116 cells assessed as late apoptotic cells at 0.3 uM measured after 24 hrs by FITC annexin-V/PI staining based flow cytometric analysis (reference value: 5.41%). The format is functional.
Series [7] in a line: Toxicity in BALB/c nude mouse xenografted with human HCT-116 cells assessed as change in cell morphology in spleen at 100 mg/kg, ip upto 20 days. The format is organism-based. The settings on record: in vivo, 480 h, time < 20 day.
Series [8] concerns HCT-116. Briefly: cells. The note with it: Homo sapiens, HCT-116, 72 h.
Description: Antiproliferative activity against human HCT-116 cells incubated for 72 hrs by MTT assay
For series [9], the system named is HCT-116. Briefly: Induction of apoptosis in human HCT-116 cells assessed as late apoptotic cells at 10 uM measured after 24 hrs by FITC annexin-V/PI staining based flow cytometric analysis (reference value: 5.41%). The class given is functional.
The subject of series [10] is HCT-116. Briefly: Induction of apoptosis in human HCT-116 cells assessed as early apoptotic cells at 0.3 uM measured after 24 hrs by FITC annexin-V/PI staining based flow cytometric analysis (reference value: 3.73%). The format is functional.
The subject of series [11] is HCT-116. The series can be described thus: Induction of apoptosis in human HCT-116 cells assessed as early apoptotic cells at 0.1 uM measured after 24 hrs by FITC annexin-V/PI staining based flow cytometric analysis (reference value: 3.73%). The class given is functional.
Series [12] can be described thus: Toxicity in BALB/c nude mouse xenografted with human HCT-116 cells assessed as change in cell morphology in lung at 100 mg/kg, ip upto 20 days. The format is organism-based. The note with it: in vivo, 480 h, time < 20 day.
The test system of series [13] is HCT-116. Briefly: Induction of apoptosis in human HCT-116 cells assessed as early apoptotic cells at 3 uM measured after 24 hrs by FITC annexin-V/PI staining based flow cytometric analysis (reference value: 3.73%). The class given is functional.
Series [14] is described as follows: Toxicity in BALB/c nude mouse xenografted with human HCT-116 cells assessed as obvious tissue lesion in kidney at 100 mg/kg, ip upto 20 days. The format is organism-based. The settings on record: in vivo, 480 h, time < 20 day.
The nature of series [15]: Toxicity in BALB/c nude mouse xenografted with human HCT-116 cells assessed as change in cell morphology in liver at 100 mg/kg, ip upto 20 days. The note with it: in vivo, 480 h, time < 20 day. The class given is organism-based.
Series [16] concerns HCT-116. Briefly: Induction of apoptosis in human HCT-116 cells assessed as late apoptotic cells at 3 uM measured after 24 hrs by FITC annexin-V/PI staining based flow cytometric analysis (reference value: 5.41%). The class given is functional.
In series [17] the test system is HCT-116. Briefly: Induction of apoptosis in human HCT-116 cells assessed as late apoptotic cells at 1 uM measured after 24 hrs by FITC annexin-V/PI staining based flow cytometric analysis (reference value: 5.41%). The format is functional.
A short description of series [18]: Toxicity in BALB/c nude mouse xenografted with human HCT-116 cells assessed as change in cell morphology in kidney at 100 mg/kg, ip upto 20 days. The settings on record: in vivo, 480 h, time < 20 day. The class given is organism-based.
A short description of series [19]: Toxicity in BALB/c nude mouse xenografted with human HCT-116 cells assessed as change in cell structure in kidney at 100 mg/kg, ip upto 20 days. The settings on record: in vivo, 480 h, time < 20 day. The format is organism-based.
Series [20] in a line: Toxicity in BALB/c nude mouse xenografted with human HCT-116 cells assessed as as body weight loss at 100 mg/kg, ip upto 20 days. The format is organism-based. The settings on record: in vivo, 480 h, time < 20 day.
Series [21] deals with HCT-116. The series can be described thus: Antitumor activity against human HCT-116 cells xenografted in BALB/c nude mouse assessed as tumor growth inhibition at 100 mg/kg, ip for 20 days relative to control. The format is functional. The settings on record: time 20 day.
The test system of series [22] is HCT-116. The series can be described thus: Induction of apoptosis in human HCT-116 cells assessed as total apoptotic cells at 10 uM measured after 24 hrs by FITC annexin-V/PI staining based flow cytometric analysis relative to control. The class given is functional.
Series [23] in a line: Toxicity in BALB/c nude mouse xenografted with human HCT-116 cells assessed as change in cell structure in heart at 100 mg/kg, ip upto 20 days. The format is organism-based. The settings on record: in vivo, 480 h, time < 20 day.
For series [24], the system named is HCT-116. The series can be described thus: Induction of apoptosis in human HCT-116 cells assessed as late apoptotic cells at 0.1 uM measured after 24 hrs by FITC annexin-V/PI staining based flow cytometric analysis (reference value: 5.41%). The format is functional.
The nature of series [25]: Metabolic stability in human liver microsomes assessed as half life by LC-MS/MS analysis. The class given is ADME, Microsome.
A short description of series [26]: Metabolic stability in human liver microsomes assessed as clearance measured upto 120 mins by LC-MS/MS analysis. The class given is ADME, Microsome. The note with it: read-out: CLH.
Series [27] has as its target T1, Glutaminase kidney isoform, mitochondrial (Homo sapiens, UniProt O94925).
T1 sequence (O94925 whole entry): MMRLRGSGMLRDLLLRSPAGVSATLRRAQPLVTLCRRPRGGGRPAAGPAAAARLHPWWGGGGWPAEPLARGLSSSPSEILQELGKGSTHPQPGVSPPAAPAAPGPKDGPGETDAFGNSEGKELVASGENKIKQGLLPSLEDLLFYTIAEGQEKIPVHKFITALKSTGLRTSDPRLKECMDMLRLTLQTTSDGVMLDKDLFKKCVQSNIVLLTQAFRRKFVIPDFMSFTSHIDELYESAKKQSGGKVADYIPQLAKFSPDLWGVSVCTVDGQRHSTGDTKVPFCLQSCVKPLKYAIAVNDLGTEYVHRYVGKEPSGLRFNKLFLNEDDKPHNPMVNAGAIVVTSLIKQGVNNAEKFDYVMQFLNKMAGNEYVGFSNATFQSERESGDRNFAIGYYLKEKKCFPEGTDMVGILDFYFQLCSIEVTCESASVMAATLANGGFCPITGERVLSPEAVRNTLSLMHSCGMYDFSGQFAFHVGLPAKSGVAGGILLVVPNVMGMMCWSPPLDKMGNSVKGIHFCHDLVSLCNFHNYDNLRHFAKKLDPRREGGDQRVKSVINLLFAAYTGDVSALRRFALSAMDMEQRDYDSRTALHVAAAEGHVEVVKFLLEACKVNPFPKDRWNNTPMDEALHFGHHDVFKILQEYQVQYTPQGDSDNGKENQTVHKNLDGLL
The series can be described thus: Inhibition of GLS1 (unknown origin) preincubated for 10 mins followed by glutamine addition measured after 60 mins.

Series [28] in a line: Toxicity in BALB/c nude mouse xenografted with human HCT-116 cells assessed as obvious tissue lesion in spleen at 100 mg/kg, ip upto 20 days. The settings on record: in vivo, 480 h, time < 20 day. The format is organism-based.
In series [29] the test system is HCT-116. The series can be described thus: Antiproliferative activity against human HCT-116 cells in presence of alpha-ketoglutarate. The class given is functional, cell-based.
The test system of series [30] is HCT-116. The series can be described thus: Induction of apoptosis in human HCT-116 cells assessed as early apoptotic cells at 10 uM measured after 24 hrs by FITC annexin-V/PI staining based flow cytometric analysis (reference value: 3.73%). The class given is functional.
Series [31] is described as follows: Toxicity in BALB/c nude mouse xenografted with human HCT-116 cells assessed as change in cell structure in lung at 100 mg/kg, ip upto 20 days. The settings on record: in vivo, 480 h, time < 20 day. The class given is organism-based.
The nature of series [32]: Toxicity in BALB/c nude mouse xenografted with human HCT-116 cells assessed as change in cell morphology in heart at 100 mg/kg, ip upto 20 days. The format is organism-based. The note with it: in vivo, 480 h, time < 20 day.
The target of series [33] is T2, Glutaminase kidney isoform, mitochondrial (Homo sapiens) (UniProt O94925).
T2 sequence (whole entry): T1 sequence (O94925 whole entry)
Description: Stabilization of GLS1 (unknown origin) assessed as change in melting temperature by protein thermal assay

Series [34] in a line: Toxicity in BALB/c nude mouse xenografted with human HCT-116 cells assessed as change in cell structure in liver at 100 mg/kg, ip upto 20 days. The class given is organism-based. The note with it: in vivo, 480 h, time < 20 day.
Series [35] in a line: Toxicity in BALB/c nude mouse xenografted with human HCT-116 cells assessed as cytoplasmic acidophilia in liver at 100 mg/kg, ip upto 20 days. The format is organism-based. The note with it: in vivo, 480 h, time < 20 day.
A short description of series [36]: Toxicity in BALB/c nude mouse xenografted with human HCT-116 cells assessed as prominent of nucleolus in liver at 100 mg/kg, ip upto 20 days. The format is organism-based. The settings on record: in vivo, 480 h, time < 20 day.
A short description of series [37]: Toxicity in BALB/c nude mouse xenografted with human HCT-116 cells assessed as proliferation of hepatocyte in liver at 100 mg/kg, ip upto 20 days. The format is organism-based. The note with it: in vivo, 480 h, time < 20 day.
A short description of series [38]: Toxicity in BALB/c nude mouse xenografted with human HCT-116 cells assessed as partial pyknosis of nuclei in liver at 100 mg/kg, ip upto 20 days. The format is organism-based. The note with it: in vivo, 480 h, time < 20 day.
A short description of series [39]: Toxicity in BALB/c nude mouse xenografted with human HCT-116 cells assessed as hyperplasia of renal tubular epithelium in kidney at 100 mg/kg, ip upto 20 days. The settings on record: in vivo, 480 h, time < 20 day. The class given is organism-based.
Series [40] in a line: Toxicity in BALB/c nude mouse xenografted with human HCT-116 cells assessed as degeneration of hepatocyte in liver at 100 mg/kg, ip upto 20 days. The class given is organism-based. The settings on record: in vivo, 480 h, time < 20 day.

With `CCCCOc1cccc(CC(=O)Nc2ccc(N3CCC(Nc4nnc(NC(=O)CCCC)s4)CC3)nn2)c1`, the Activity in series [1] is 5.84%; in [2] it was “Non-Toxic”; in [3] it was “Non-Toxic”; in series [4], “Non-Toxic”; in series [5], “Non-Toxic”; in series [6], 9.88%. Moreover, the Activity result in [7] is given as “Non-Toxic”; in series [9], 20.5%; in series [10] it was 5.76%; in series [11], 4.9%; in series [12], “Non-Toxic”; in series [13], 6.54%. The Activity entry is reported as “Non-Toxic” in series [14]; “Non-Toxic” in [15]; 17.2% in series [16]; 12.3% in series [17]; “Non-Toxic” in series [18]; “Non-Toxic” in series [19]. Further, the Activity entry was “Non-Toxic” in series [20]; around 30% in series [22]; “Non-Toxic” in series [23]; 7.63% in series [24]; “Non-Toxic” in series [28]; 8.52% in series [30]. Besides, the Activity entry in series [31], in series [32] and in series [34] was “Non-Toxic” in each case. Moreover, the results for the IC50 in series [8], in [27] and in series [29] were 61 nM, 7 nM and 41500 nM, respectively. Besides, the TGI in [21] is listed as 38.9%. In series [25], the half-life stood at 1.8 h. Further, the microsomal CLint in series [26] was determined as 32 µL/min/mg. Besides, the ΔTm in series [33] was found to be 15.1 °C.

`O=C(Cc1cccc(OC(F)(F)F)c1)Nc1ccc(CCCCc2nnc(NC(=O)Cc3ccccn3)s2)nn1`: the Activity result in [35] is listed as “Toxic”; in series [36], “Toxic”; in series [37] it was “Toxic”; in series [20], “Non-Toxic”; in series [38], “Toxic”; in [39] it was “Toxic”. For the same compound, the Activity result in series [40] is recorded as “Toxic”. For the same compound, in [8], the concentration for half-maximal inhibition (IC50) came to 560 nM. In series [21], the tumour growth inhibition (TGI) amounted to 43.7%. In addition, the half-life in series [25] came out at 1.65 h. The microsomal CLint in series [26] stood at 35 µL/min/mg.
